Test results as given in publication PMC5454942, “The Potential of Triterpenoids from Loquat Leaves (Eriobotrya japonica) for Prevention and Treatment of Skin Disorder” (International Journal of Molecular Sciences, 2017).
≈ marks a conversion by molar mass, not a printed value. Where “and” joins values, the source holds several entries; their conditions need not be identical. Equal entries are not always repeated.

Columns and labels:
B16 melanoma cells [1] = assay: Cell viability of B16 melanoma cells (MTT); details: for Inhibition rate (100% − cell viability): B16 cells; for CC50 cell viability / CC50: B16 melanoma cells, MTT; for CC50: read-out: CC50 (cell viability)
Protocol: (§1) This assay was performed as described by Arung et al.. The mouse melanoma cell line B16 was obtained from the Riken Bioresource Center Cell Bank (Tsukuba, Japan). The B16 melanoma cells were maintained in Eagle’s Minimal Essential Medium (EMEM, Nissui Chemical, Tokyo) supplemented with 10% (v/v) fetal bovine serum (FBS; Gibco, Carlsbad, CA, USA) and 0.09 mg/mL theophylline (Sigma-Aldrich, St. Louis, MO, USA). […] After 24 h, test samples were dissolved in DMSO (<0.2% per well) and sample solution were added to each well. Arbutin (Tokyo Kasei Kogyo, Tokyo) was used as a positive control. The cells were incubated for an additional 48 h, and then the medium was replaced with fresh medium containing each sample again. After 24 h, the melanin content and the cell viability were measured using a microplate reader (BioTek-ELX800, BioTek Instruments, Winooski, VT, USA) at 405 nm and 570 nm, respectively. Cell viability was measured using the MTT (3-(4,5-dimethylthiazol-2-yl)-2,5-diphenyltetrazolium bromide) method.

RBL-2H3 cells [2] = assay: Cell viability of RBL-2H3 cells (parallel MTT); type: cell-based, rat; details: 25 μg/ml, RBL-2H3 cells
Protocol: (§2) The anti-allergy assay was based mostly on the methods described by Zhu et al. and Yun et al. with slight modification. Rat basophilic leukemia (RBL-2H3) cells were obtained from the Riken Bio-resource Center Cell Bank (Tsukuba, Japan). RBL-2H3 cells were incubated in EMEM medium containing 10% FBS and 1% antibiotics–antimycotics at 37 °C. The cells were seeded on a 96-well plate (2 × 10^5 cells/well). After 24 h of incubation, the medium was supplemented with 0.5 μg/mL anti-DNP (dinitrophenol) mouse immunoglobulin E (IgE) (Sigma-Aldrich). After an additional 24 h of incubation, the medium was replaced with 100 μL of Tyrode buffer. The sample dissolved in DMSO (<0.5% per well) was added, and the cell plate was incubated again for 30 min, then replaced with 100 μL of tyrode buffer containing 50 μg/mL DNP-bovine serum albumin (BSA) (Invitrogen, Carlsbad, CA, USA). After 1 h of incubation, 50 μL of the supernatant was collected from each well and mixed with 50 μL of substrate solution (p-nitrophenyl-N-acetyl-β-glucosaminide, 2 mM; Sigma-Aldrich) in a new 96-well plate. The mixture was incubated at room temperature on a shaker for 3 h. Finally, 100 μL of stop solution was added, and the absorbance was read at 405 nm. A parallel MTT experiment was performed to measure the cell viability. The MTT experiment was done exactly as described.

Propionibacterium acnes = assay: Anti-bacterial assay (growth inhibition, MIC/MBC by broth microdilution); type: cell-based; details: for Inhibition Rate (P. acnes growth): concentration 100 μg/mL; for activity against P. acnes (in words): at their maximum solubility
Protocol: The antibacterial assay was based mostly on the methods described by Tanaka et al. with slight modification. Propionibacterium acne (NBRC 107605) was used for the antibacterial assay. A single colony of the test strain was taken and 5 mL of Gifu anaerobic medium (GAM) broth (Nissui, Tokyo) was added to it. This culture was incubated at 37 °C for 30 h. It was then added to the bacterial suspension to prepare a bacterial concentration at 10^5 CFU/mL. The bacterial solution was used for the subsequent antibacterial assay. Each compound was dissolved in DMSO, and benzalkonium chloride (Wako) was used as a positive control. The plate was incubated at 37 °C for 30 h. Finally, bacterial growth was measured by a microplate reader at 630 nm. The MIC and MBC were evaluated by the standard broth microdilution method.

NHDF cells = assay: Skin type I collagen synthesis promoting assay (ELISA, with MTT); type: cell-based, human; details: fold of control
Protocol: The assay for measuring the promotion of skin collagen synthesis was described by Kishikawa et al.. Adult NHDF cells (Lonza, Tokyo) were routinely maintained in 10% FBS and 1% antibiotic-antimycotic (Invitrogen) in Dulbecco’s modified Eagle’s medium (DMEM, Wako). After growing to confluence, cells at a density of 5 × 10^3 cells/well were seeded on 96-well plates for 24 h before the treatment. The medium was replaced with a mixture of 1 μL of sample solution (DMSO < 0.5% per well) and 99 μL of DMEM supplemented with 0.5% FBS. After 72 h of cultivation, the amount of collagen in the medium was measured using a human type I collagen enzyme-linked immunosorbent assay (ELISA) kit (ACEL, Kanagawa, Japan). The amount of collagen production was calculated using a standard curve prepared by measurement by the same ELISA. The cells remaining in the 96-well plate were subjected to an MTT assay. Ascorbic acid (100 μM, Wako) was used as a positive control.

B16 melanoma cells [3] = assay: Anti-melanogenesis assay (melanin content); type: cell-based, mouse; details: for Inhibition rate (100% − melanin synthesis): B16 cells; for IC50 melanin / IC50: B16 melanoma cells; for IC50: read-out: IC50 (melanin synthesis)
Protocol: as §1

RBL-2H3 cells [4] = assay: β-hexosaminidase release from IgE-stimulated RBL-2H3 mast cells; type: cell-based, rat; details: 25 μg/mL
Protocol: as §2

Row | SMILES | IC50 melanin (B16 melanoma cells [3]) [µg/mL] | IC50 (B16 melanoma cells [3]) [µM] | Inhibition rate (100% − cell viability) (B16 melanoma cells [1]; 1 μg/ml) [%] | Inhibition rate (100% − cell viability) (B16 melanoma cells [1]; 2.5 μg/ml) [%] | Inhibition rate (100% − cell viability) (B16 melanoma cells [1]; 5 μg/ml) [%] | Inhibition rate (100% − cell viability) (B16 melanoma cells [1]; 10 μg/ml) [%] | CC50 cell viability (B16 melanoma cells [1]) [µg/mL] | CC50 (B16 melanoma cells [1]) [µM] | Cell viability (RBL-2H3 cells [2]) [%] | Inhibition Rate (P. acnes growth) (Propionibacterium acnes) | CP/CV value (collagen production %/cell viability %) (NHDF cells; 5 μg/mL) | Inhibition rate (100% − melanin synthesis) (B16 melanoma cells [3]; 1 μg/ml) [%] | Inhibition rate (100% − melanin synthesis) (B16 melanoma cells [3]; 2.5 μg/ml) [%] | Inhibition rate (100% − melanin synthesis) (B16 melanoma cells [3]; 5 μg/ml) [%] | Inhibition rate (100% − melanin synthesis) (B16 melanoma cells [3]; 10 μg/ml) [%] | Inhibition Rate (β-hexosaminidase release) (RBL-2H3 cells [4]) [%] | activity against P. acnes (in words) (Propionibacterium acnes) | CP/CV value (collagen production %/cell viability %) (NHDF cells; 10 μg/mL) | Inhibition rate (100% − cell viability) (B16 melanoma cells [1]; 20 μg/ml) [%] | CP/CV value (collagen production %/cell viability %) (NHDF cells; 1 μg/mL) | also measured
1 | COC(=O)[C@]12CCC(C)(C)C[C@@H]1C1=CC[C@@H]3[C@@]4(C)C[C@@H](O)[C@H](O)C(C)(C)C4CC[C@@]3(C)[C@]1(C)CC2 (stereo partly drawn) [Compound 5, Methyl maslinate] | 6.2 (≈ 12.7 µM) | 12.8 | 4.7 ± 8.1 | 1.3 ± 5.2 | 12.1 ± 8.6 | 75.9 ± 0.5 | 8.4 (≈ 17.3 µM) | 17.5 | 105.8 ± 1.1 | – (no inhibition) | 1.2 | 0.0 ± 4.4 | 1.6 ± 0.6 | 44.8 ± 4.3 | 68.2 ± 0.6 | 8.5 ± 9.5 | – | – | – | – | –
2 | COC(=O)[C@]12CC[C@@H](C)[C@H](C)[C@H]1C1=CC[C@@H]3[C@@]4(C)C[C@@H](O)[C@H](O)C(C)(C)[C@@H]4CC[C@@]3(C)[C@]1(C)CC2 [Compound 6, methyl corosolate] | 7.8 (≈ 16 µM) | 16.1 | 4.5 ± 13.7 | 10.5 ± 10.9 | 15.4 ± 5.1 | 59.4 ± 7.0 | 9.1 (≈ 18.7 µM) | 18.7 | 97.6 ± 14.1 | 77.9 ± 1.6% | 2.4 | 0.0 ± 1.9 | 2.8 ± 4.5 | 32.7 ± 1.5 | 63.5 ± 2.7 | 2.4 ± 14.1 | active | 3.4 and 3.6 | – | – | –
3 | C[C@H]1[C@H](C)CC[C@]2(C(=O)O)CC[C@]3(C)C(=CC[C@@H]4[C@@]5(C)CCC(=O)C(C)(C)[C@@H]5CC[C@]43C)[C@H]12 [Compound 13, 3-oxours-12-en-28-oic acid] | 8.1 (≈ 17.8 µM) | 18 | 39.1 ± 2.6 | 42.7 ± 2.1 | 51.5 ± 3.7 | 80.3 ± 3.0 | 4.0 (≈ 8.8 µM) | 8.9 | 85.6 ± 4.2 | – (no inhibition) | 1.2 | 41.0 ± 2.1 | 39.7 ± 0.6 | 45.5 ± 2.7 | 52.9 ± 0.6 | – | – | 1.4 | – | 1.2 | Inhibition rate (100% − melanin synthesis) (B16 melanoma cells [3]; 0.5 μg/ml): 37.4 ± 1.1%

Continued, in another order:

Row | IC50 melanin (B16 melanoma cells [3]) [µg/mL] | IC50 (B16 melanoma cells [3]) [µM] | SMILES | Inhibition rate (100% − cell viability) (B16 melanoma cells [1]; 1 μg/ml) [%] | Inhibition rate (100% − cell viability) (B16 melanoma cells [1]; 2.5 μg/ml) [%] | Inhibition rate (100% − cell viability) (B16 melanoma cells [1]; 5 μg/ml) [%] | Inhibition rate (100% − cell viability) (B16 melanoma cells [1]; 10 μg/ml) [%] | CC50 cell viability (B16 melanoma cells [1]) [µg/mL] | CC50 (B16 melanoma cells [1]) [µM] | Cell viability (RBL-2H3 cells [2]) [%] | Inhibition Rate (P. acnes growth) (Propionibacterium acnes) | CP/CV value (collagen production %/cell viability %) (NHDF cells; 5 μg/mL) | Inhibition rate (100% − melanin synthesis) (B16 melanoma cells [3]; 1 μg/ml) [%] | Inhibition rate (100% − melanin synthesis) (B16 melanoma cells [3]; 2.5 μg/ml) [%] | Inhibition rate (100% − melanin synthesis) (B16 melanoma cells [3]; 5 μg/ml) [%] | Inhibition rate (100% − melanin synthesis) (B16 melanoma cells [3]; 10 μg/ml) [%] | Inhibition Rate (β-hexosaminidase release) (RBL-2H3 cells [4]) [%] | activity against P. acnes (in words) (Propionibacterium acnes) | CP/CV value (collagen production %/cell viability %) (NHDF cells; 10 μg/mL) | Inhibition rate (100% − cell viability) (B16 melanoma cells [1]; 20 μg/ml) [%] | CP/CV value (collagen production %/cell viability %) (NHDF cells; 1 μg/mL) | also measured
4 | 9.0 (≈ 18.4 µM) | 18.5 | C[C@@H]1CC[C@]2(C(=O)O)CC[C@]3(C)C(=CC[C@@H]4[C@@]5(C)C[C@@H](O)[C@H](O)C(C)(C)[C@@H]5CC[C@]43C)[C@@H]2[C@]1(C)O [Compound 11, tormentic acid] | 12.0 ± 12.8 | 13.7 ± 10.7 | 8.7 ± 12.1 | 52.4 ± 8.6 | 11.4 (≈ 23.3 µM) | 23.3 | 62.6 ± 1.1 | 102.8 ± 2.1% | 1.3 | 0.0± 6.1 | 11.3 ± 3.4 | 34.8 ± 4.5 | 51.3 ± 0.9 | – | active | – | 85.8 ± 1.6 | – | MBC (Propionibacterium acnes; P. acnes, broth microdilution): 200 µg/mL (≈ 409 µM); MIC (Propionibacterium acnes; P. acnes, broth microdilution): 100 µg/mL (≈ 205 µM); Inhibition rate (100% − melanin synthesis) (B16 melanoma cells [3]; 20 μg/ml): 73.4 ± 8.0%
5 | 7.2 (≈ 14.8 µM) | 14.8 | C[C@@H]1CC[C@]2(C(=O)O)CC[C@]3(C)C(=CC[C@@H]4[C@@]5(C)CCC(=O)C(C)(C)[C@@H]5[C@H](O)C[C@]43C)[C@@H]2[C@]1(C)O [Compound 14, 6β,19-dihydroxyurs-12-en-3-oxo-28-oic acid] | 2.5 ± 8.3 | 1.2 ± 9.7 | 44.1 ± 0.4 | 69.1 ± 10.0 | 5.3 (≈ 10.9 µM) | 10.9 | 66.8 ±11.1 | 87.6 ± 7.4% | 1.4 | 6.9 ± 1.8 | 15.8 ± 1.8 | 39.5 ± 3.1 | 67.3 ± 1.4 | – | active | 1.1 | – | 1.2 | –
6 | > 20.0 | > 42.3 | C[C@@H]1CC[C@]2(C(=O)O)CC[C@]3(C)C(=CC[C@@H]4[C@@]5(C)C[C@@H](O)C(=O)C(C)(C)[C@@H]5CC[C@]43C)[C@@H]2[C@]1(C)O [Compound 15, 2α, 19α-dihydroxy-3-oxo-12-ursen-28-oic acid] | – | – | 5.6 ± 4.6 | 11.4 ± 3.9 | > 20.0 | > 42.3 | 102.1 ± 2.2 | – (no inhibition) | 1.1 | – | – | – | 24.2 ± 1.0 | 0.9 ± 0.0 | – | – | 26.4 ± 1.4 | – | –
